According to patent US12083082B2, “Methods for treating neurodegenerative disorders” (Alzheon, Inc., priority 2018, dated 2024):

Legend:
[1] = target: T1, recombinant human Aβ42 peptide (Homo sapiens, UniProt P05067); assay: Ion mobility mass spectrometry (IMS MS) anti-Aβ42 oligomer activity / binding study; type: biochemical; design: key to Presence of Aβ42 Pentamer / Presence of Aβ42 Hexamer / Presence of Aβ42 Decamer / Presence of Aβ42 Dimer / Presence of Aβ42 Trimer / Presence of Aβ42 Tetramer: Y = yes, presence of oligomer species; N = no presence of oligomer species
T1 construct: recombinant human Aβ42 peptide; purchased BioLegend 843801
T1 sequence (P05067 672-713 limits assumed): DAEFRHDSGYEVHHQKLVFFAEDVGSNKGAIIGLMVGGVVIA
Procedure: The conditions used for mass spectrometry, using a Waters Synapt G2-S, were as follows: positive polarity in sensitivity mode, capillary=2.5 kV, nebulizer=2 mbar, source temperature=80° C., desolvation temperature=60° C., sample cone setting=35 V, source offset setting=60 V, and mass range=500 to 4000 m/z. These conditions were maintained throughout the study to ensure consistency of the data and to avoid influencing the detection of oligomers due to preferential ionization conditions.
Samples were directly infused into the mass spectrometer at a flow rate of 10 μL/min using a Protea PM-1000 Syringe Pump and Hamilton 1 mL Syringe. The data acquisition of the amyloid peptide was performed using a Waters Synapt G2-S quadrupole time of flight mass spectrometer (Q-TOF MS) with traveling wave ion mobility (Waters Corp., Milford, MA). The data were acquired using the systems sensitivity mode to allow for the detection of the less abundant oligomers. Samples were infused at room temperature. The IMS MS studies were conducted at Protea, Inc. (Morgantown, WV).
1 mg of recombinant human Aβ42 peptide from BioLegend (99% purity, cat #843801) was reconstituted in 200 μL of Fisher Optima LC/MS grade water (cat #W6-1) and vortexed vigorously for 2 minutes to solubilize the peptide creating a 5 mg/mL solution. Samples were then diluted to a final concentration of 22 pmol/μL prior to incubation. The sample mixtures were then incubated at room temperature for 0, 4 and 24 hours. After the acquisition of incubated samples was completed, the raw data were analyzed using the Waters MassLynx v2.4 suite with DriftScover v2.7 to visualize drift times for the peptide.
Aβ42 species characterization using IMS MS was performed by direct infusion at 22 pmol/μL in water. The peptide was prepared in water to maintain the native state conformation of the peptide and ion mobility data acquisition was performed to detect and characterize the conformational changes of the native state monomer and any oligomers that may have formed during the incubation.
The data acquisition for Aβ42 peptide was performed using a Waters Synapt G2-S quadrupole time of flight mass spectrometer (Q-TOF MS) with traveling wave ion mobility (Waters Corp., Milford, MA). The data were acquired using the systems sensitivity mode to allow for the detection of the less abundant oligomers. Samples were infused at room temperature as above.
1 mg of 3-SPA was reconstituted in 1 mL of Fisher Optima LC/MS grade water (cat #W6-1) and vortexed vigorously for 2 minutes until completely dissolved. The sample was then diluted to create […], and 22,000 pmol/μL solutions to perform a 100-fold, and 1,000-fold molar excess for the binding experiments with Aβ42 peptide.
1 mg of recombinant human Aβ42 peptide was reconstituted in 200 μL of Fisher Optima LC/MS grade water and vortexed vigorously to solubilize to a 5 mg/mL solution. Samples were then diluted to their final concentrations prior to incubation. The sample mixtures were incubated at room temperature for 0, 4 and 24 hours, followed by analysis as described above.
To address the high conformational flexibility of Aβ42 and to characterize its interaction with 3-SPA, we used ion mobility mass spectrometry (IMS), with a quadrupole time of flight mass spectrometer (Q-TOF MS) with traveling wave ion mobility. Resulting effect of modulation of Aβ conformational space is the prevention of oligomer formation. We have found not only concentration dependency but also time-dependency of this anti-Aβ42 oligomeric effect of 3-SPA as indicated in FIG. 3 and FIG. 4. 100- vs 1,000-fold molar excess of 3-SPA over Aβ42 results in a different sub-species profile of inhibition of Aβ42 oligomer formation. The activity is also compared with the same excess dependency of tramiprosate.

[2] = cited from earlier work
[3] = in vivo; details: rat, po
From the text: ALZ-801 is a valine conjugate of tramiprosate that has been optimized for improved pharmacokinetic properties and gastrointestinal tolerability. Chronic toxicology studies required for the advancement of ALZ-801 to Phase 3 have been completed, including the nonclinical safety characterization of ALZ-801, and the safety bridge to the extensive nonclinical toxicology and safety data for tramiprosate. […] See Hey et al., Clinical Pharmacokinetics and Safety of ALZ-801, a Novel Prodrug of Tramiprosate in Development for the Treatment of Alzheimer's Disease. Clin Pharmacokinetics 2018; 315-333 and Kocis et al., Elucidating the Abeta42 Anti-Aggregation Mechanism of Action of Tramiprosate in Alzheimer's Disease: Integrating Molecular Analytical Methods. Pharmacokinetic and Clinical Data. CNS Drugs 2017; 31:495-509. […] Both ALZ-801 and tramiprosate have consistent elimination half-life in plasma across species following repeated oral doses of ALZ-801, indicating no potential for accumulation after chronic dosing. Following conversion of ALZ-801 to tramiprosate, tramiprosate is consistently metabolized in vivo into a single major metabolite, 3-sulfopropanoic acid (3-SPA), in humans, mice, rats, dogs and minipigs.

[4] = 100:1 excess ratio compound:protein
[5] = 1000:1 excess ratio compound:protein

Presence of Aβ42 Decamer [1, 4] | Presence of Aβ42 Dimer [1, 4] | Presence of Aβ42 Hexamer [1, 4] | Presence of Aβ42 Pentamer [1, 4] | Presence of Aβ42 Tetramer [1, 4] | Presence of Aβ42 Trimer [1, 4] | Presence of Aβ42 Decamer [1, 5] | Presence of Aβ42 Dimer [1, 5] | Presence of Aβ42 Hexamer [1, 5] | Presence of Aβ42 Pentamer [1, 5] | Presence of Aβ42 Tetramer [1, 5] | Presence of Aβ42 Trimer [1, 5] | Compound | Inhibition of formation of Aβ42 oligomers (in words) ([1]; 24 hours incubation, 1,000-fold excess) | Safety profile (in words) ([2]; Phase 3 trials and safety extension, exposures of up to 2.5 years) | Effect on cognition (in words) ([2]; subgroup analysis of subjects with the ε4 allele of APOE (APOE4)) | NOAEL at 1 month [3] [mg/kg] | NOAEL at 6 month [3] [mg/kg] | Tolerability (in words) [3]
N | N | Y | Y | Y | Y | N | N | N | N | N | N | NCCCS(=O)(=O)O [Tramiprosate, 3-amino-1-propanesulfonic acid, reference compound] | complete inhibition of formation of Aβ42 oligomers | favorable safety profile | positive and clinically meaningful benefit on cognition |  |  | 
 |  |  |  |  |  |  |  |  |  |  |  | CC(C)[C@H](N)C(=O)NCCCS(=O)(=O)O [ALZ-801] |  |  |  | 2000 | 1500 | well tolerated
